The source of these data is patent US5506211A, “Genistein for use in inhibiting osteroclasts” (The UAB Research Foundation, priority 1994, dated 1996).

Where “and” joins values, the source holds several entries; their conditions need not be identical. Equal entries are not always repeated. Where two headings read alike, the source gives them in different places. Bounds are passed on as bounds.

Series [1] has as its system avian osteoclasts. As to the kind of experiment: Bone resorption assay with [3H]-proline labeled bone and isolated osteoclasts. Type of series: cell-based, Gallus domesticus. The conditions noted are these: Gallus gallus, Osteoclast, read-out: half maximal effect on bone resorption, 100 μg 3H-proline labeled bone, 10^4 osteoclasts.
The test system of series [2] is osteoclasts. As to the kind of experiment: in vitro. The procedure: (§1) Since advantageous effects are seen at 1 μM, with half maximal effects at 2-3 μM, toxicity at 30 μM indicates a broad therapeutic margin. […] It should also be noted that doses would not be designed to achieve 100%, or even 50%, inhibition as osteoclasts are vital cells. Thus, 10-20% inhibition would likely result in a clear benefit to the patient without significant side effects, particularly as over-inhibtion would be compensated for by production of PTH.

Series [3] relates to avian osteoclast membrane HCl transport. As to the kind of experiment: Osteoclast membrane vesicle acid transport (acridine orange fluorescence quenching). Type of series: biochemical, Gallus domesticus. The conditions noted are these: for effect of valinomycin on inhibited vesicle acid transport: 120 mM KCl, 5 μM herbimycin, 20 μM genistein; for IC50: osteoclast membrane vesicles, read-out: half maximal inhibition of osteoclast acid transport / acid secretion; for reversal of inhibition by by-passing chloride conductivity with valinomycin: valinomycin 2 μM, potassium 120 mM; for activity on acid transport: 25 μM.

Series [4] relates to avian osteoclasts. As to the kind of experiment: Bone resorption assay with [3H]-proline labeled bone and isolated osteoclasts. The series is classed as cell-based, Gallus domesticus. The conditions noted are these: for IC (essentially complete): 72 h, read-out: concentration giving essentially complete inhibition of bone resorption; for bone resorption: negative to concentration: quadruplicate assays. On the procedure: Arian osteoclasts were isolated from medullary bone of calcium-starved white leghorn laying hens, Gallus domesticus, essentially as described by Blair et al. (1986). […] 90-98% of cell mass of sedimenting material consists of osteoclasts or essentially inert red cells (Zambonin-Zallone et al., 1982; Blair et al., 1986). Although rich in osteoclasts, these preparations contain significant numbers of all other components of bone, including osteoblasts and marrow cells.
Cells were plated on glass cover slips in 3 cm petri plates for fluorescence studies, or 15 cm petri plates for Western Blots, or 24 well plates (2 cm^2 /well) for resorption and binding studies. For resorption and binding studies, cells were plated at 5×10^3 /well. Cells were maintained in α-MEM containing 5% fetal calf serum, 5% chicken serum, 100 μg/ml streptomycin and 100 units/ml penicillin at 37° C. in humidified air with 5% CO2.
Where bone was used, this was devitalized fragmented rat bone (Blair et al., 1986) sieved to sizes indicated, usually 25-50 μm. For studies of osteoclasts attached to bone or tissue culture plates, 100 μg unlabeled bone per 2 cm^2 well was used, or 5 mg per 10 cm plate.
Bone resorption was measured using [^3 H]-proline labeled bone (Blair et al., 1986).

The test system of series [5] is osteoclasts. The experiment in a line: Bone binding (adherence of labeled bone fragments to cultured osteoclasts). Type of series: cell-based, Gallus domesticus. On the procedure:
Bone binding was determined by adherence of bone fragments to cultured cells (Carano et al., 1990). Briefly, this entailed adding labeled bone fragments to 3 day osteoclast cultures, incubating 4 h at 37° C. in a α-MEM with 5% fetal calf serum and 5% chicken serum, washing with PBS […], solubilizing the label overnight in 6N HCl, and scintillation counting.

Series [6] in a line: Biliary appearance of intestinally administered genistein in rats. The series is classed as in vivo. The conditions noted are these: rat, bile, intestinal administration with NaTC, over a 4 hr period, read-out: fraction of administered genistein appearing in bile. On the procedure: (§2) The low aqueous solubility of genistein (<50 μg per ml) should also be considered. This might result in a maximum total absorption independent of dose. […] The present inventors have used this delivery method for studies performed in rats. […] NaTC is a naturally occurring bile salt and may have a role in the absorption of genistein released from food.

The nature of a further series: in vitro. The conditions noted are these: osteoclasts. On the procedure: as §1
The conditions of series [7]: Southeast Asians, 70 mg per day; cited from earlier work.
A short description of another series: Aqueous solubility. The series is classed as physicochemical. On the procedure: as §2

As to `CO[C@H]1[C@@H](OC)C[C@H](C)[C@@H](OC)C2=CC(=O)C=C(NC(=O)/C(C)=C/C=C\[C@H](OC)[C@@H](OC(N)=O)/C(C)=C/[C@@H]1C)C2=O` [Herbimycin A], the IC50 in the series with avian osteoclasts [1] was 300 to 500 nM. Besides, in the series with osteoclasts [2], the “toxicity relative to genistein” value is given as “about ten times more toxic”. In the series with osteoclasts [2] (chicken), the “toxicity threshold relative to genistein, fold lower” value is on record as “about 10 fold”. In [3], the “effective dose on osteoclast acid secretion relative to genistein, fold lower” value is recorded as “about 10 fold”; the “effect of valinomycin on inhibited vesicle acid transport” value was “restored acid transport activity”; the IC50 is ~2000 nM; the “reversal of inhibition by by-passing chloride conductivity with valinomycin” value is on record as “partially reversed”. Further, in the series on avian osteoclasts [4] (Gallus gallus, Osteoclast), the IC (essentially complete) stood at 1 µM.
For the compound `N#CC(C#N)=Cc1cc(O)c(O)c(O)c1` [Tyrphostin A25], the “activity on acid transport” value in [3] was “inactive”.
On to `N#CC(=Cc1ccc(O)c(O)c1)C(N)=S` [Tyrphostin A47], for which the IC50 in series [3] turned out to be 12000 nM. Also, in the series on avian osteoclasts [4], the “bone resorption: negative to concentration” value was > 20 µM.
Consider `O=c1c(-c2ccc(O)cc2)coc2cc(O)ccc12` [daidzein, 4',7-dihydroxyisoflavone], for which the “activity on acid transport” value in series [3] is “inactive”. The “inhibition of osteoclast acid transport” value in [3] (30 μM) is reported as < 20%. In addition, the “effect on bone resorption” value with avian osteoclasts [4] (10 μM) is “no effect”. Further, in the series with avian osteoclasts [4] (Gallus gallus, Osteoclast, 30 μM), the inhibition (as a rule, the change of the read-out against control, counted positive when it falls) at 30 µM was ~10%. In addition, the “activity in the osteoclast assay systems” value in the series on avian osteoclasts [4] (osteoclast assay systems disclosed) was “negligible activity”. In the series on avian osteoclasts [4], the “bone resorption: negative to concentration” value was > 20 µM.
Turning to `O=c1c(-c2ccc(O)cc2)coc2cc(O)cc(O)c12` [genistein, 5,7,4'-trihydroxyisoflavone], in the series on osteoclasts [5], the “effect on osteoclast binding to bone” value is listed as “alter the ability of osteoclasts to bind to bone”. For the same compound, the dose excreted at 4 h in series [6] was in the range of 40 to 50%. Besides, in the series with osteoclasts [2] (30 μM genistein), the “time in which cells die” value fell in the range of 2 to 3 days. The same compound displayed an MCC in “in vitro” (chicken) of 30 µM. The selectivity ratio in the series “in vitro” is ~30. Besides, in [3], the “level effective at inhibiting osteoclast acid secretion” value is “less than 1 μM and < 0.27 μg/ml”; the “effect of valinomycin on inhibited vesicle acid transport” value is on record as “valinomycin insensitive”; the IC50 was ~3000 nM; the “reversal of inhibition by by-passing chloride conductivity with valinomycin” value is recorded as “not reversed”. Moreover, in series [3] (doses comparable to those inhibiting bone resorption), the “inhibition of osteoclast cell membrane acid transport (FIG. 2)” value is reported as “inhibited”. For the same compound, the “ill effects of dietary intake” value in series [7] is listed as “without obvious ill effects”. Besides, in the series “Aqueous solubility” (mixed with sodium taurocholate (NaTC)), the “aqueous solubility when mixed with bile salt” value is “substantially enhanced”. The solubility – broadly, the concentration that dissolves in the medium under given conditions – in the series “Aqueous solubility” (water) was < 50 µg/mL. Besides, the “inhibition of bone resorption / degradation (FIG. 1)” value with avian osteoclasts [4] was “significantly inhibited”. Also, the IC (essentially complete) in the series with avian osteoclasts [4] (Gallus gallus, Osteoclast, at 3 days) stood at 20 µM. The “inhibition of bone resorption / degradation (FIG. 1)” value in the series with avian osteoclasts [4] (listed as Genistein) is given as “significantly inhibits”.
